Measurements taken from patent publication US11866430B2, “Naphthyridinone compounds useful as T cell activators” (priority 2018, dated 2024).

Tests used:
[1] = tested on: pre-activated CD4 T cells and Raji cells; experiment: Raji CD4 T Cell IL2 Assay; type: cell-based; settings: Homo sapiens, Raji
human DGKα = human DGKα (Homo sapiens (Human), UniProt P23743); experiment: biochemical; settings: detergent/lipid micelle substrate; read-out: DGKα IC50
In short: (§1)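 Full-length human DGKζ (and DGKα), C-terminal His-tagged, Sf9-expressed, with phosphatidylserine/DAG micelles in 50 mM octyl glucoside; buffer 50 mM MOPS pH 7.5, 100 mM NaCl, 10 mM MgCl2, 1 μM CaCl2, 1 mM DTT.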

human DGKζ = human DGKζ (Homo sapiens (Human), UniProt Q13574); experiment: DGKζ assay (detergent/lipid micelle substrate); type: biochemical; settings: detergent/lipid micelle substrate; read-out: DGKζ IC50
Sequence of human DGKζ (Q13574 other isoform, or with tags, fused parts or gaps): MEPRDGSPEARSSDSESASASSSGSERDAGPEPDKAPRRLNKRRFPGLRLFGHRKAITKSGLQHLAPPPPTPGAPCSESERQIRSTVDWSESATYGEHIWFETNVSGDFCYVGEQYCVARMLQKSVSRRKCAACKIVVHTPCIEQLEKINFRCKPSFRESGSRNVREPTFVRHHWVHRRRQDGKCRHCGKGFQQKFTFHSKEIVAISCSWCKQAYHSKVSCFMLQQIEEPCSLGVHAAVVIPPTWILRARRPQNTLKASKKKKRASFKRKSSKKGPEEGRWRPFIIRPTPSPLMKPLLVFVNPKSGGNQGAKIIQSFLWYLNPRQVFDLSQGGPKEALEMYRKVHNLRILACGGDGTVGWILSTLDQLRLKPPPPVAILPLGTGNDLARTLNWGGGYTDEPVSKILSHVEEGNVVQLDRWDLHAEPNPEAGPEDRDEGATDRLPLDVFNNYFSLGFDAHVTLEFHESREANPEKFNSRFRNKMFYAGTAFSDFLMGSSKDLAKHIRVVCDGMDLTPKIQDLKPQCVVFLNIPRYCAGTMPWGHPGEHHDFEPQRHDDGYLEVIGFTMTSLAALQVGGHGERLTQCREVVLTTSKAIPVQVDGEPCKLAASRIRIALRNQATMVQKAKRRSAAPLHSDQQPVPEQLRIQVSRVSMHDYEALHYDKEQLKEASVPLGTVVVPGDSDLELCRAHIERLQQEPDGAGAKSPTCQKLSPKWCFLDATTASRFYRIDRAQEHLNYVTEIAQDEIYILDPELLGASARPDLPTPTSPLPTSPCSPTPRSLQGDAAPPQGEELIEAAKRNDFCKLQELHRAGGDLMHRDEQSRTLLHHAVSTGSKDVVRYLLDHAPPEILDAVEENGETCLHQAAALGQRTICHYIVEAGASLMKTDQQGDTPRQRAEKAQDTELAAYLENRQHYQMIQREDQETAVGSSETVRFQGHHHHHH
In short: as §1

Sequence of human DGKα (P23743 other isoform, or with tags, fused parts or gaps): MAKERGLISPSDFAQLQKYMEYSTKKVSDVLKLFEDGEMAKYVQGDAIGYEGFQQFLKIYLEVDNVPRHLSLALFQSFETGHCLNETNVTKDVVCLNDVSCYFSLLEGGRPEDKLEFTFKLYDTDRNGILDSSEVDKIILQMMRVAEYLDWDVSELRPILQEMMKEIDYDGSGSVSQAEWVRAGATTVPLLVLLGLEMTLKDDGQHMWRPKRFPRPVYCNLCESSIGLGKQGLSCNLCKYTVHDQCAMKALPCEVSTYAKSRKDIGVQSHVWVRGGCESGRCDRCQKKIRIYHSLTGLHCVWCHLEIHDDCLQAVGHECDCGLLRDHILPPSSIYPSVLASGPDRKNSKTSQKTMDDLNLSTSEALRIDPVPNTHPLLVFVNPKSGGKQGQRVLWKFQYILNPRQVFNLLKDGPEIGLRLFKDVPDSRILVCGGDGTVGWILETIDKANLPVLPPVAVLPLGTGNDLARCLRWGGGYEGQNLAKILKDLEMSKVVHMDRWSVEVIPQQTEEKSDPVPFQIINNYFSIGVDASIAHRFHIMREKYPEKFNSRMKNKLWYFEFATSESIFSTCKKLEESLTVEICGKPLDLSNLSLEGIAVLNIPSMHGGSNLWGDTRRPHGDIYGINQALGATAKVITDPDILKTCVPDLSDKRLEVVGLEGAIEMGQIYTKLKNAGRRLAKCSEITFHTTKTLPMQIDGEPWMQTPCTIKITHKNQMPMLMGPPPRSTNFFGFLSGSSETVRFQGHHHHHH

SMILES | IC50 [1] | IC50 (human DGKα) | IC50 (human DGKζ)
Cn1c(=O)c(C#N)c(N2CCN(Cc3cc(Cl)cc(Cl)c3O)CC2)c2nc(Br)ccc21 [Example 366, 6-bromo-4-{4-[(3,5-dichloro-2-hydroxyphenyl)methyl]piperazin-1-yl}-1-methyl-2-oxo-1,2-dihydro-1,5-naphthyridine-3-carbonitrile] | > 100 µM | 1.3 µM | 160 µM
Cn1c(=O)c(C#N)c(N2CCN(Cc3cc(Cl)ccc3O)CC2)c2nc(Br)ccc21 [Example 367, 6-bromo-4-{4-[(5-chloro-2-hydroxyphenyl)methyl]piperazin-1-yl}-1-methyl-2-oxo-1,2-dihydro-1,5-naphthyridine-3-carbonitrile] | > 100 µM | 0.22 µM | > 240 µM
COc1cccc(CN2CCN(c3c(C#N)c(=O)n(C)c4ccc(Br)nc34)CC2)c1O [Example 368, 6-bromo-4-{4-[(2-hydroxy-3-methoxyphenyl)methyl]piperazin-1-yl}-1-methyl-2-oxo-1,2-dihydro-1,5-naphthyridine-3-carbonitrile] | > 100 µM | 0.4 µM | > 240 µM
Cn1c(=O)c(C#N)c(N2CCN(Cc3cc(OC(F)(F)F)ccc3O)CC2)c2nc(Cl)ccc21 [Example 369, 6-chloro-4-(4-{[2-hydroxy-5-(trifluoromethoxy)phenyl]methyl}piperazin-1-yl)-1-methyl-2-oxo-1,2-dihydro-1,5-naphthyridine-3-carbonitrile] | > 100 µM | 0.16 µM | > 240 µM
Cn1c(=O)c(C#N)c(N2CCN(Cc3cc(Cl)ccc3O)CC2)c2nc(Cl)ccc21 [Example 370, 6-chloro-4-{4-[(5-chloro-2-hydroxyphenyl)methyl]piperazin-1-yl}-1-methyl-2-oxo-1,2-dihydro-1,5-naphthyridine-3-carbonitrile] | > 100 µM | 0.17 µM | > 240 µM
COc1cccc(CN2CCN(c3c(C#N)c(=O)n(C)c4ccc(Cl)nc34)CC2)c1O [Example 371, 6-chloro-4-{4-[(2-hydroxy-3-methoxyphenyl)methyl]piperazin-1-yl}-1-methyl-2-oxo-1,2-dihydro-1,5-naphthyridine-3-carbonitrile] | > 100 µM | 0.23 µM | 170 µM
Cn1c(=O)c(C#N)c(N2CCN(Cc3ccc(C(F)(F)F)c(F)c3)CC2)c2nc(Cl)ccc21 [Example 375, 6-chloro-4-(4-{[3-fluoro-4-(trifluoromethyl)phenyl]methyl}piperazin-1-yl)-1-methyl-2-oxo-1,2-dihydro-1,5-naphthylidine-3-carbonitrile] | > 100 µM | 1.6 µM | > 240 µM
Cn1c(=O)c(C#N)c(N2CCN(Cc3ccc(Cl)cc3)CC2)c2nc(Cl)ccc21 [Example 417, 6-chloro-4-{4-[(4-chlorophenyl)methyl]piperazin-1-yl}-1-methyl-2-oxo-1,2-dihydro-1,5-naphthyridine-3-carbonitrile] | 0.15 µM | 0.25 µM | > 240 µM
Cn1c(=O)c(C#N)c(N2CCN(C3(c4ccc(F)cc4)CC3)CC2)c2nc(Cl)ccc21 [Example 421, 6-chloro-4-{4-[1-(4-fluorophenyl)cyclopropyl]piperazin-1-yl}-1-methyl-2-oxo-1,2-dihydro-1,5-naphthyridine-3-carbonitrile] | 2.8 µM | 69 µM | > 240 µM
Cc1ccc2c(n1)c(N1CCN(C(c3ccc(F)cc3)c3ccc(F)cc3)CC1)cc(=O)n2C [Example 427, 4-{4-[bis(4-fluorophenyl)methyl]piperazin-1-yl}-1,6-dimethyl-1,2-dihydro-1,5-naphthyridin-2-one] | 2.4 µM | 150 µM | > 240 µM
